Measurements: publication PMC9358932 (Chemical Science, 2022)
Like-named read-outs stand apart in the source and are kept apart here.

Key:
Cp149 dimer = test: Solution-state NMR chemical shift perturbations; type: binding, Hepatitis B virus (HBV); details: 4 molar equivalents of compound
[1] = biological target: T1, Cp149 reassembled capsids (Hepatitis B virus genotype D subtype ayw, UniProt P03146); test: biochemical; type: binding, Hepatitis B virus (HBV); details: ITC, 50 mM HEPES pH 7.5, 298 K
T1 sequence (P03146 1-149): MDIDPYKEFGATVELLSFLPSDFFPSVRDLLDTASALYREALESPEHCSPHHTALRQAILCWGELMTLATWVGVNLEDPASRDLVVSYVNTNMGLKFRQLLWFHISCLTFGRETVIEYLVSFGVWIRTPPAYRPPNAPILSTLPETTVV

many organisms = details: cited from earlier work
[2] = biological target: T1, Cp149 reassembled capsids; details: ITC, TX100 value taken from previous data; cited from earlier work

4-hexylaniline [Compound 2e]
CSPs / pocket binding in words (Cp149 dimer): smallest CSPs

4’-heptylacetophenone [Compound 2d]
CSPs / pocket binding in words (Cp149 dimer): rather small CSPs

CC(C)(C)CC(C)(C)c1ccc(O)cc1 [Compound 1c, 4-tert-octylphenol]
ΔH [1]: -4.79 ± 0.14 kcal/mol
Kd [1]: 7.5 ± 0.5 µM
CSPs / pocket binding in words (Cp149 dimer): as high as those derived for TX100
toxicity / environmental pollutant (many organisms): toxic to many organisms

CCCCCCc1ccc(O)cc1 [Compound 2a, 4-hexylphenol]
ΔH [1]: -6.0 ± 0.6 kcal/mol
Kd [1]: 13 ± 3 µM

CC(C)c1ccc(O)cc1 [Compound 4a, 4-isopropylphenol]
ΔH [1]: -5 ± 3 kcal/mol
Kd [1]: 18 ± 7 µM

CCCc1ccc(O)cc1 [Compound 4b, 4-propylphenol]
ΔH [1]: -7 ± 4 kcal/mol
Kd [1]: 14 ± 7 µM

CCC(C)(C)c1ccc(O)cc1 [Compound 4c, 4-tert-amylphenol]
ΔH [1]: -12.7 ± 1.2 kcal/mol
Kd [1]: 30 ± 4 µM

NP40 [Compound 6g]
ΔH [1]: -3.41 ± 0.09 kcal/mol

Reduced Triton X-100 [Compound 1b]
CSPs / pocket binding in words (Cp149 dimer): very small CSPs

Triton X-100 [Compound 1a]
Kd [2]: 8.3 ± 0.5 µM
ΔH [2]: -4.59 ± 0.05 kcal/mol
